Measured values as given in patent US10624917B2, “Compositions and methods useful for treating or preventing liver diseases or disorders, and promoting weight loss” (YALE UNIVERSITY, priority 2014, dated 2020).
Entries after “also recorded” stand apart in the source; their conditions may differ.

Tested on: IL-1β production in murine peritoneal macrophages (PECs)
Assay: IL-1β secretion (ELISA) by primed, ATP-pulsed peritoneal macrophages (PECs)
Type: cell-based, mouse
Description: FIGS. 1A-1J illustrate the finding that adenosine stimulates IL-1β production in NLRP3 inflammasome-dependent manner. Murine peritoneal macrophages (PECs) were obtained from wild type (WT) mice (FIGS. 1A-1D, 1F-1I), Il1r−/− (FIG. 1E) or Nlrp3−/−, ASC−/−, P2xr7−/−, or Caspase-1−/− mice (FIG. 1J) and were primed with LPS for 16 hours. FIG. 1A: This was followed by treatment for 1 hour with adenosine (Ad, 100 μM), adenosine deaminase inhibitor (EHNA, 10 μM), adenosine deaminase (ADA, 10 U ml^−1), ATP diphosphohydrolase (Apyrase, 10 U ml^−1), or erythro-9-(2-hydroxy-3-nonyl) adenine (EHNA, 10 μM) (FIGS. 1B, 1F-1J)). Pan adenosine agonist (NECA, 1 μM, 10 μM) (FIGS. 1C, 1E), or (FIGS. 1D, 1I) by NECA for 1 and 6 hours, and were then pulsed with ATP for 20 min. Enzyme-linked immunosobent assay (ELISA) of IL-1β, TNF-α, IL-10 and IFN-γ secretion were measured in cell supernatants after pulsing with ATP for 5 hours (FIGS. 1A, 1C-1E, 1J) or indicated time-course (FIGS. 1B, 1G-1I). LDH assay was performed after pulsing with ATP as indicated time-course (FIG. 1F). Data are expressed as the mean±SD from at least three independent experiments. *p<0.05 determined by Student's t-test.
C57BL/6 mice were purchased from the National Cancer Institute. ASC−/−, Caspase-1−/−, Nlrp3−/− and P2xr7−/− mice have been described (Rock et al., 2010, Annu Rev Immunol. 28:321-42). A2ora2a flox/flox mice and LysMcre mice were purchased from Jackson Laboratories. HIF-1a flox/flox mice were kindly provided by Dr. Ruslan M Medzhitov (Yale University). 7- to 12-week-old males with a variety of genetic manipulations were used in most experiments. The number of mice in each experimental group was chosen based on previous experience with these experimental models. Mouse peritoneal macrophages (PECs) were isolated by peritoneal lavage 3 days after intraperitoneal injection of 4% thioglycollate solution (B2551, Fluka,). Cells were plated at the density of 3×10^6 cells in 12-well dishes and non-adherent cells were removed after 3 h. Cells primed overnight with 100 ng/ml LPS or 10 ng/ml Pam3CSK4 were treated with various chemicals and followed stimulation. Cells were cultured in DMEM medium complemented with 10% FBS, penicillin/streptomycin and L-glutamine. Mouse bone marrow derived macrophages were isolated from bone marrow cells, and were differentiated for 7 days in complete RPMI-1640 medium supplemented with 2 mM L-glutamine, 100 U/ml penicillin, 100 μg/ml streptomycin, 50 μM 2-mercaptoethanol (all from Invitrogen), 10% heat-inactivated FBS and 20 ng/ml M-CSF (PeproTech). Kupffer cells (KC) were isolated by the density gradient separation of Optiprep (Sigma), and then plates were gently washed and media was replenished after seeding cells for 2 hours to raise KC purity.
Primed PECs were both pulsed for 20 min with 5 mM ATP or 10 μM nigericin, and left untreated until culture supernatants were collected. Secretion of IL-1β was determined by enzyme-linked immunoabsorbent assay (ELISA; R&D Systems).

[1] = LPS-primed PECs pulsed with ATP
[2] = PECs from A2A receptor deficient cells

| SMILES | IL-1β production [1] | IL-1β production [2] | IL-1β production in wild-type vs IL-1 receptor deficient macrophages (LPS + ATP) | IL-1β production by LPS and ATP (macrophages lacking caspase-1, NLRP3, ASC or P2x7 receptor) |
| --- | --- | --- | --- | --- |
| CCNC(=O)[C@H]1O[C@@H](n2cnc3c(N)nc(NCCc4ccc(CCC(=O)O)cc4)nc32)[C@H](O)[C@@H]1O [CGS21680] | increase IL-1β production to a comparable degree to NECA and EHNA | not increased | – | – |
| CCNC(=O)[C@H]1O[C@@H](n2cnc3c(N)ncnc32)[C@H](O)[C@@H]1O [NECA, 5′-(N-ethylcarboxamido) adenosine] | stimulated an increase; also recorded: increased | not increased | to a similar degree | did not result in significant production of IL-1β |
